Calls of active or inactive are those of the source. No cut-off for these calls is given here.

Data set [1] is described as follows: Tlast in C57BL/6 mouse at 400 ug, ip by UHPLC-MS/MS analysis. The format is ADME, organism-based. The note with it: in vivo, dose 400 µg.
For data set [2], the system named is Lewis lung carcinoma cell line. Kind of data set: Antitumor activity against mouse Lewis lung carcinoma cell line implanted in C57BL/6 mouse assessed as reduction in tumor volume at 300 to 400 ug, ip administered 5 days per week and measured every 2 to 3 days by caliper method. The note with it: dose 300-400 µg. The format is functional, organism-based.
The nature of data set [3]: Unbound fraction in mouse plasma by dialysis method. Format: ADME, cell-free.
A short description of data set [4]: Kinetic solubility of compound in PBS at pH 7.4 by Rapidfire-MS/MS method. The format is physicochemical. The note with it: buffer.
The nature of data set [5]: AUClast in C57BL/6 mouse at 400 ug, ip by UHPLC-MS/MS analysis. As to conditions: in vivo, dose 400 µg. Format: ADME, organism-based.
Data set [6] can be described thus: Drug uptake in C57BL/6 mouse at 400 ug, ip measured after 6 hrs by UHPLC-MS/MS analysis. The format is ADME, organism-based. The note with it: in vivo, dose 400 µg, read-out: Drug uptake.
Data set [7] in a line: Drug uptake in C57BL/6 mouse at 400 ug, ip measured after 24 hrs by UHPLC-MS/MS analysis. The format is ADME, organism-based. As to conditions: in vivo, dose 400 µg, read-out: Drug uptake.
Data set [8] relates to U-937. Kind of data set: Upregulation of ABCA1 expression in human U-937 cells incubated for 72 hrs by qRT-PCR analysis. Format: functional, cell-based. On the technique in general: Quantitative PCR measures a nucleic acid by following its amplification.
The test system of data set [9] is U-937. As to the kind of experiment: Downregulation of SREBP-1 expression in human U-937 cells incubated for 72 hrs by qRT-PCR analysis. The format is functional, cell-based.
For data set [10], the system named is Lewis lung carcinoma cell line. Kind of data set: Antitumor activity against mouse Lewis lung carcinoma cell line assessed as reduction in cell number at 10 uM incubated for 72 hrs by trypan blue assay. Format: functional, cell-based.
Data set [11] can be described thus: Cmax in C57BL/6 mouse at 400 ug, ip by UHPLC-MS/MS analysis. Format: ADME, organism-based. As to conditions: in vivo, dose 400 µg.
The nature of data set [12]: Drug uptake in C57BL/6 mouse at 400 ug, ip measured after 3 hrs by UHPLC-MS/MS analysis. Format: ADME, organism-based. As to conditions: in vivo, dose 400 µg, read-out: Drug uptake.
Data set [13] concerns U-937. Kind of data set: Downregulation of FASN expression in human U-937 cells incubated for 72 hrs by qRT-PCR analysis. The format is functional, cell-based.
Data set [14] is described as follows: Clast in C57BL/6 mouse at 400 ug, ip by UHPLC-MS/MS analysis. The note with it: in vivo, dose 400 µg. Format: ADME, organism-based.
Data set [15] can be described thus: Tmax in C57BL/6 mouse at 400 ug, ip by UHPLC-MS/MS analysis. The format is ADME, organism-based. As to conditions: in vivo, dose 400 µg.
The subject of data set [16] is U-937. Kind of data set: Downregulation of SCD1 expression in human U-937 cells incubated for 72 hrs by qRT-PCR analysis. The format is functional, cell-based.
A short description of data set [17]: Drug uptake in C57BL/6 mouse at 400 ug, ip measured after 1 hr by UHPLC-MS/MS analysis. The format is ADME, organism-based. The note with it: in vivo, dose 400 µg, read-out: Drug uptake.
Data set [18] in a line: Hepatic intrinsic clearance in human liver microsomes assessed per mg protein at 0.5 uM in presence of NADPH regenerating system by UHPLC-MS/MS method. Format: ADME, Microsome. As to conditions: read-out: CLH.
A short description of data set [19]: Hepatic intrinsic clearance in mouse liver microsomes assessed per mg protein at 0.5 uM in presence of NADPH regenerating system by UHPLC-MS/MS method. The format is ADME, Microsome. As to conditions: read-out: CLH. For orientation: Liver microsomes are vesicles of endoplasmic reticulum, rich in cytochrome P450 enzymes.
A short description of data set [20]: Unbound fraction in human plasma by dialysis method. The format is ADME, cell-free.
The subject of the next data set is B16-F1. As to the kind of experiment: Antitumor activity against mouse B16-F1 cells implanted in C57BL/6 mouse assessed as reduction in tumor volume at 300 to 400 ug, ip administered 5 days per week and measured every 2 to 3 days by caliper method. Format: functional, organism-based. The note with it: dose 300-400 µg.
Data set [21] addresses T1, Oxysterols receptor LXR-alpha (Homo sapiens, UniProt Q13133).
T1 sequence (Q13133 whole entry): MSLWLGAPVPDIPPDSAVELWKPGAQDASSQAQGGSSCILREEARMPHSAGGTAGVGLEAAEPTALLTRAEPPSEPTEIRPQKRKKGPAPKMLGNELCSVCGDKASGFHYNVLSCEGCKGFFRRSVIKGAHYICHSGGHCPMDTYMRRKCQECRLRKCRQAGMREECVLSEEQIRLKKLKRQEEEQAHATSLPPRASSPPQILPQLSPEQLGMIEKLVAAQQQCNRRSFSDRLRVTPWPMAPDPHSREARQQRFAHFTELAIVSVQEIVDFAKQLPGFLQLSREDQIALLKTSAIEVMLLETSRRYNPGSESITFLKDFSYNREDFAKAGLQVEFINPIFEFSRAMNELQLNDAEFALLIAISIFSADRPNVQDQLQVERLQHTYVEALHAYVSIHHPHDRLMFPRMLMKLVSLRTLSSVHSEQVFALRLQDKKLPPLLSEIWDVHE
Kind of data set: Antagonist activity at LXRalpha (unknown origin) by TR-FRET assay. In general terms: In TR-FRET formats the signal depends on donor and acceptor labels being close together.

The target of data set [22] is T1, Oxysterols receptor LXR-alpha. As to the kind of experiment: Antagonist activity at LXRalpha (unknown origin).
A further data set relates to Mus musculus. Kind of data set: Observed extrapolated AUC in C57BL/6 mouse at 400 ug, ip by UHPLC-MS/MS analysis. The format is ADME, organism-based. As to conditions: in vivo, at 400 µg.
A short description of data set [23]: Observed AUC infinity in C57BL/6 mouse at 400 ug, ip by UHPLC-MS/MS analysis. The format is ADME, organism-based. The note with it: in vivo, dose 400 µg.

The molecule `C[C@@H]([C@H]1CC[C@H]2[C@@H]3CC=C4C[C@@H](O)CC[C@]4(C)[C@H]3CC[C@]12C)[C@@H](O)Cc1ccccc1` returned a Tlast in data set [1] of 24 h. The result (in [2]; in the data set on U-937 [8]; with U-937 [9]; in data set [10]; with U-937 [13]; in the data set with U-937 [16]) was Active. For the same molecule, in the data set with B16-F1, the result was Active. Besides, the Fu in data set [3] and in [20] was less than 1% throughout. Also, in data set [4], the Kinetic_solubility result is on record as “NotTraceable”. The same molecule yielded an area under the curve AUC(0-t) in [5] of 3070 ng·h/mL. Moreover, the concentration at 6 h in [6] is 110 ng/mL. The concentration at 24 h in data set [7] was determined as 167 ng/mL. This molecule also had a Cmax in [11] of 174 ng/mL. Further, in data set [12], the concentration at 3 h stood at 109 ng/mL. The molecule further came in with a Clast in [14] of 167 ng/mL. Moreover, in data set [15], the time of peak concentration (Tmax) came out at 6 h. Also, in data set [17], the concentration at 1 h came out at 68.9 ng/mL. In addition, the microsomal CLint at 0.5 µM is less than 9.9 µL/min/mg in data set [18] and 45.8 µL/min/mg in data set [19].

Regarding `CC(C)[C@@H](O)CC[C@@H](C)[C@H]1CC[C@H]2[C@@H]3CC=C4C[C@@H](OS(=O)(=O)O)CC[C@]4(C)[C@H]3CC[C@]12C`, the IC50 in [21] stood at 150 nM.

With `CC(C)CCC[C@@H](C)[C@H]1CC[C@H]2[C@@H]3C(=O)C=C4C[C@@H](OS(=O)(=O)O)CC[C@]4(C)[C@H]3CC[C@]12C`, in data set [22], 5000 nM corresponded to half-maximal inhibition (IC50).

For the molecule `CC(C)CCC[C@@H](C)[C@H]1CC[C@H]2[C@@H]3C[C@@H]4O[C@@]45C[C@@H](OS(=O)(=O)O)CC[C@]5(C)[C@H]3CC[C@]12C`, the IC50 in data set [22] stood at 2000 nM.

Consider `CC(C)CC[C@H](O)[C@@H](C)[C@H]1CC[C@H]2[C@@H]3CC=C4C[C@@H](OS(=O)(=O)[O-])CC[C@]4(C)[C@H]3CC[C@]12C.[Na+]`, for which the Tlast in data set [1] turned out to be 6 h. Also, the result (in data set [2]; in the data set on B16-F1) was Active. Also, the Fu in data set [3] and in data set [20] was less than 1% throughout. In addition, the Kinetic_solubility entry in data set [4] was “NotTraceable”. Further, the “%AUCextra” value with Mus musculus is recorded as 2.5%. In data set [5], the AUC(0-t) came out at 4690 ng·h/mL. Further, the concentration at 6 h in [6] is 65.2 ng/mL. The molecule further came in with a Cmax in data set [11] of 3170 ng/mL. In [23], this molecule displayed an AUC(0-inf) of 4800 ng·h/mL. Further, the concentration at 3 h in data set [12] amounted to 363 ng/mL. The Clast in data set [14] is 65.2 ng/mL. In addition, the Tmax in data set [15] turned out to be 1 h. For the same molecule, the concentration at 1 h in data set [17] amounted to 3170 ng/mL. For the same molecule, the results for the microsomal CLint at 0.5 µM in data set [18] and in data set [19] were 26.4 µL/min/mg and 17.2 µL/min/mg, respectively.

In data set [21], `CC(C)[C@H](CC[C@@H](C)[C@H]1CC[C@H]2[C@@H]3CC=C4C[C@@H](O)CC[C@]4(C)[C@H]3CC[C@]12C)OS(=O)(=O)O` gave an IC50 of 310 nM.

Usually AUC(0-t) stands for exposure summed from dosing to a finite time, without extrapolation to infinity. Read a low AUC(0-t) as less exposure. A word on the Cmax: it is the highest concentration seen after dosing. The term Tmax denotes the time at which the peak concentration occurs. The IC50 is the concentration at which inhibition is half-maximal. A high value points to weaker potency. For orientation: AUC(0-inf) means total exposure, with the tail of the curve extrapolated. A high value points to more exposure.
